# Test: Metabolic stability in human liver microsomes
# Format: in vitro ADME
# Conditions: for in vitro clearance compared with 4-OH-Trimethyltryptamine iodide (reference compound A) / in vitro clearance compared with 4-OH-Dimethylethyltryptamine iodide (reference compound B) / half-life and intrinsic clearance compared to the respective reference compounds: based on Table 2; for half-life at 0.25 μM / microsomal CLint at 0.25 μM: pH 7.4, NADPH; for half-life at 0.25 μM / microsomal CLint at 0.25 μM / CLint (μL/min/mg protein) / t1/2: 37° C.; for microsomal CLint at 0.25 μM: read-out: CLint (μL/min/mg protein); for Minus cofactor control (% of 0 min): incubation without cofactor, comment: possible chemical instability or non-cofactor dependent enzymatic degradation; for CLint (μL/min/mg protein) / t1/2: NADPH
# Protocol: Microsomal Assay: Human liver microsomes (20 mg/mL) are obtained. B-nicotinamide adenine dinucleotide phosphate, reduced form (NADPH), magnesium chloride (MgCl2), and dimethyl sulfoxide (DMSO) are purchased from Sigma-Aldrich.
# Determination of Metabolic Stability: 7.5 mM stock solutions of test compounds are prepared in DMSO. […] The diluted microsomes are added to wells of a 96-well deep-well polypropylene plate in triplicate. […] Reactions are initiated by addition of pre-warmed NADPH solution. The final reaction volume is 0.5 mL and contains 4.0 mg/mL human liver microsomes, 0.25 μM test compound, 2 mM NADPH in 0.1 M potassium phosphate buffer, pH 7.4, and 3 mM MgCl2. The reaction mixtures are incubated at 37° C., and 50 pL aliquots are removed at 0, 5, 10, 20, and 30 min or other suitable interval and added to shallow-well 96-well plates containing 50 pL of ice-cold CAN (acetonitrile) with internal standard to stop the reactions. The plates are stored at 4° C. for 20 minutes after which 100 pL of water is added to the wells of the plate before centrifugation to pellet precipitated proteins. Supernatants are transferred to another 96-well plate and analysed for amounts of the test compound remaining by LC-MS/MS using, for example, an Applied Bio-systems API 4000®) mass spectrometer. The same procedure is followed for the non-deuterated counterparts of the test compounds and for the positive control, 7-ethoxy coumarin (1 μM). Testing can be done in triplicate.
# Data analysis: The in vitro T1/2s for the test compounds is calculated from the slopes of the linear regression of % test compound remaining (In) vs incubation time.
# where k=−[slope of linear regression of % parent remaining (In) vs incubation time. The apparent intrinsic clearance is calculated using the following equation: […]
# Data analysis can be performed using Microsoft Excel® Software.
smiles,measurement,value
"[2H]C([2H])(c1c[nH]c2cccc(O)c12)C([2H])([2H])[N+](C)(C)C.[I-] [Compound 1, 4-Hydroxy-3-(2-(trimethyl-λ^4-azaneyl)ethyl-1,1,2,2-d4)-1H-indole iodide]",in vitro clearance compared with 4-OH-Trimethyltryptamine iodide (reference compound A),significantly lower in vitro clearance
same,half-life at 0.25 μM,4.12 h
same,microsomal CLint at 0.25 μM,5.6 µL/min/mg
"[2H]C([2H])(c1c[nH]c2cccc(O)c12)C([2H])([2H])[N+](C)(C)CC.[I-] [Compound 2, 3-(2-(Ethyldimethyl-λ^4-azaneyl)ethyl-1,1,2,2-d4)-4-hydroxy-1H-indole iodide]",in vitro clearance compared with 4-OH-Dimethylethyltryptamine iodide (reference compound B),significantly lower in vitro clearance
same,half-life at 0.25 μM,8.23 h
same,microsomal CLint at 0.25 μM,2.81 µL/min/mg
"[2H]C([2H])(c1c[nH]c2cccc(O)c12)C([2H])([2H])[N+](C)(C)CCC.[I-] [Compound 3, 3-(2-(Dimethyl(propyl)-λ^4-azaneyl)ethyl-1,1,2,2-d4)-4-hydroxy-1H-indole iodide]",half-life at 0.25 μM,16.2 h
same,microsomal CLint at 0.25 μM,1.42 µL/min/mg
"[2H]C([2H])(c1c[nH]c2cccc(O)c12)C([2H])([2H])[N+](C([2H])([2H])[2H])(C([2H])([2H])[2H])C([2H])([2H])[2H].[I-] [Compound 4, 4-Hydroxy-3-(2-(tris(methyl-d3)-λ^4-azaneyl)ethyl-1,1,2,2-d4)-1H-indole iodide]",in vitro clearance compared with 4-OH-Trimethyltryptamine iodide (reference compound A),significantly lower in vitro clearance
same,half-life at 0.25 μM,57.7 h
same,microsomal CLint at 0.25 μM,0.401 µL/min/mg
"[2H]C([2H])(c1c[nH]c2cccc(O)c12)C([2H])([2H])[N+](C)(C([2H])([2H])[2H])C([2H])([2H])[2H].[I-] [Compound 5, 4-Hydroxy-3-(2-(methylbis(methyl-d3)-λ^4-azaneyl)ethyl-1,1,2,2-d4)-1H-indole iodide]",in vitro clearance compared with 4-OH-Trimethyltryptamine iodide (reference compound A),significantly lower in vitro clearance
same,half-life at 0.25 μM,101 h
same,microsomal CLint at 0.25 μM,0.228 µL/min/mg
"[2H]C([2H])(c1c[nH]c2cccc(O)c12)C([2H])([2H])[N+](CC)(C([2H])([2H])[2H])C([2H])([2H])[2H].[I-] [Compound 6, 3-(2-(Ethylbis(methyl-d3)-λ^4-azaneyl)ethyl-1,1,2,2-d4)-4-hydroxy-1H-indole iodide]",in vitro clearance compared with 4-OH-Dimethylethyltryptamine iodide (reference compound B),significantly lower in vitro clearance
same,half-life at 0.25 μM,5.28 h
same,microsomal CLint at 0.25 μM,4.38 µL/min/mg
"[2H]C([2H])(c1c[nH]c2cccc(OC(C)=O)c12)C([2H])([2H])[N+](C)(C)C.[I-] [Compound 7, 4-Acetoxy-3-(2-(trimethyl-λ^4-azaneyl)ethyl-1,1,2,2-d4)-1H-indole iodide]",half-life and intrinsic clearance compared to the respective reference compounds,exhibit differences in half-life and intrinsic clearance
same,Minus cofactor control (% of 0 min),Minus cofactor control low (52% of 0 min).
same,half-life at 0.25 μM,0.778 h
same,microsomal CLint at 0.25 μM,29.7 µL/min/mg
"[2H]C([2H])(c1c[nH]c2cccc(OC(C)=O)c12)C([2H])([2H])[N+](C)(C)CC.[I-] [Compound 8, 4-Acetoxy-3-(2-(ethyldimethyl-λ^4-azaneyl)ethyl-1,1,2,2-d4)-1H-indole iodide]",half-life and intrinsic clearance compared to the respective reference compounds,exhibit differences in half-life and intrinsic clearance
same,Minus cofactor control (% of 0 min),Minus cofactor control low (37% of 0 min).
same,half-life at 0.25 μM,0.477 h
same,microsomal CLint at 0.25 μM,48.4 µL/min/mg
"[2H]C([2H])(c1c[nH]c2cccc(OC(C)=O)c12)C([2H])([2H])[N+](C)(C)CCC.[I-] [Compound 9, 4-Acetoxy-3-(2-(dimethyl(propyl)-λ^4-azaneyl)ethyl-1,1,2,2-d4)-1H-indole iodide]",half-life and intrinsic clearance compared to the respective reference compounds,exhibit differences in half-life and intrinsic clearance
same,Minus cofactor control (% of 0 min),Minus cofactor control low (20% of 0 min).
same,half-life at 0.25 μM,0.312 h
same,microsomal CLint at 0.25 μM,74.3 µL/min/mg
"[2H]C([2H])(c1c[nH]c2cccc(OC(C)=O)c12)C([2H])([2H])[N+](C([2H])([2H])[2H])(C([2H])([2H])[2H])C([2H])([2H])[2H].[I-] [Compound 10, 4-Acetoxy-3-(2-(tris(methyl-d3)-λ^4-azaneyl)ethyl-1,1,2,2-d4)-1H-indole iodide]",half-life and intrinsic clearance compared to the respective reference compounds,exhibit differences in half-life and intrinsic clearance
same,Minus cofactor control (% of 0 min),Minus cofactor control low (44% of 0 min).
same,half-life at 0.25 μM,0.775 h
same,microsomal CLint at 0.25 μM,29.8 µL/min/mg
"[2H]C([2H])(c1c[nH]c2cccc(OC(C)=O)c12)C([2H])([2H])[N+](C)(C([2H])([2H])[2H])C([2H])([2H])[2H].[I-] [Compound 11, 4-Acetoxy-3-(2-(methylbis(methyl-d3)-λ^4-azaneyl)ethyl-1,1,2,2-d4)-1H-indole iodide]",half-life and intrinsic clearance compared to the respective reference compounds,exhibit differences in half-life and intrinsic clearance
same,Minus cofactor control (% of 0 min),Minus cofactor control low (51% of 0 min).
same,half-life at 0.25 μM,0.797 h
same,microsomal CLint at 0.25 μM,29 µL/min/mg
"[2H]C([2H])(c1c[nH]c2cccc(OC(C)=O)c12)C([2H])([2H])[N+](CC)(C([2H])([2H])[2H])C([2H])([2H])[2H].[I-] [Compound 12, 4-Acetoxy-3-(2-(ethylbis(methyl-d3)-λ^4-azaneyl)ethyl-1,1,2,2-d4)-1H-indole iodide]",half-life and intrinsic clearance compared to the respective reference compounds,exhibit differences in half-life and intrinsic clearance
same,Minus cofactor control (% of 0 min),Minus cofactor control low (40% of 0 min).
same,half-life at 0.25 μM,0.558 h
same,microsomal CLint at 0.25 μM,41.4 µL/min/mg
"COc1ccc2c(c1)[C@]13CCCC[C@@H]1[C@H](C2)N(C)CC3 [dextromethorphan, reference compound]",CLint (μL/min/mg protein),54.9 μL/min/mg protein
same,t1/2,25.3 min
"C[N+](C)(C)CCc1c[nH]c2cccc(O)c12.[I-] [reference compound A, 4-OH-Trimethyltryptamine iodide, reference compound]",CLint (μL/min/mg protein),6.81 μL/min/mg protein
same,t1/2,204 min
"CC[N+](C)(C)CCc1c[nH]c2cccc(O)c12.[I-] [reference compound B, 4-OH-Dimethylethyltryptamine iodide, reference compound]",CLint (μL/min/mg protein),5.41 μL/min/mg protein
same,t1/2,256 min
"CC(=O)Oc1cccc2[nH]cc(CC[N+](C)(C)C)c12.[I-] [reference compound D, 4-OAc-Trimethyltryptamine iodide, reference compound]",CLint (μL/min/mg protein),28.3 μL/min/mg protein
same,t1/2,48.9 min
same,Minus cofactor control (% of 0 min),Minus cofactor control low (51% of 0 min).
"CC[N+](C)(C)CCc1c[nH]c2cccc(OC(C)=O)c12.[I-] [reference compound E, 4-OAc-Dimethylethyltryptamine iodide, reference compound]",CLint (μL/min/mg protein),46.4 μL/min/mg protein
same,t1/2,29.9 min
same,Minus cofactor control (% of 0 min),Minus cofactor control low (38% of 0 min).
"CCC[N+](C)(C)CCc1c[nH]c2cccc(OC(C)=O)c12.[I-] [reference compound F, 4-OAc-Dimethylpropyltryptamine iodide, reference compound]",CLint (μL/min/mg protein),62.7 μL/min/mg protein
same,t1/2,22.1 min
same,Minus cofactor control (% of 0 min),Minus cofactor control low (27% of 0 min).

# — patent US20240400512A1, “ANALOGS OF N,N,N-TRIMETHYL-4-PHOSPHORYLOXYTRYPTAMINE” (Terran Biosciences Inc., priority 2021, published 2024)
